For series [1], the system named is soluble epoxide hydrolase (sEH). The experiment in a line: Fluorescent assay for mouse and human soluble epoxide hydrolase (CMNPC substrate). The series is classed as biochemical. The source says: Fluorescent Assay for Mouse and Human Soluble Epoxide Hydrolase Recombinant mouse sEH (MsEH) and human sEH (HsEH) were produced in a baculovirus expression system as previously reported. Grant et al., J. Biol. Chem., 268:17628-17633 (1993); Beetham et al., Arch. Biochem. Biophys., 305:197-201 (1993). The expressed proteins were purified from cell lysate by affinity chromatography. Wixtrom et al., Anal. Biochem., 169:71-80 (1988). Protein concentration was quantified using the Pierce BCA assay using bovine serum albumin as the calibrating standard. The preparations were at least 97% pure as judged by SDS-PAGE and scanning densitometry. They contained no detectable esterase or glutathione transferase activity which can interfere with the assay. The assay was also evaluated with similar results in crude cell lysates or homogenate of tissues. The IC50s for each inhibitor were according to the following procedure: […] Jones P. D. et. al.; Analytical Biochemistry 2005; 343: pp. 66-75) Bis/Tris HCl 25 mM pH 7.0 containing 0.1 mg/mL of BSA (buffer […] at 0.25 mM in DMSO. Mother solution of enzyme in buffer A (Mouse sEH at 6 μg/mL and Human sEH at 5 μg/mL). Inhibitor dissolved in DMSO at the appropriate concentration. In a black 96 well plate, fill all the wells with 150 μL of buffer A. Add 2 μL of DMSO in well A2 and A3, and then add 2 μL of inhibitor solution in A1 and A4 through A12. Add 150 μL of buffer A in row A, then mix several time and transfer 150 μL to row B. Repeat this operation up to row H. The 150 μL removed from row H is discarded. Add 20 μL of buffer A in column 1 and 2, then add 20 μL of enzyme solution to column 3 to 12. Incubate the plate for 5 minutes in the plate reader at 30° C. During incubation prepare the working solution of substrate by mixing 3.68 mL of buffer A (4×0.920 mL) with 266 μL (2×133 μL) of substrate solution). At t=0, add 30 μL of working substrate solution with multi-channel pipette labeled “Briggs 303” and start the reading ([S]final: 5 μM). […] The velocities are used to analyze and calculate the IC50s.

In the case of `O=C(Nc1ccc(OC(F)(F)F)cc1)NC1CCN(C(=O)c2cncc(C(=O)O)c2)CC1` [Compound 1, 5-(4-(3-(4-(trifluoromethoxy)phenyl)ureido)piperidine-1-carbonyl)nicotinic acid], the melting point (as a rule, the temperature of the solid-liquid transition) lay in the range of 211 to 213 °C. Besides, in series [1] (compound concentration 200 nM), the % Inhibition – broadly, the relative decrease from the control value, in per cent – was determined as 94%.

Compound `O=C(Nc1ccc(OC(F)(F)F)cc1)NC1CCN(C(=O)c2ccc(C(F)(F)F)nc2)CC1` [Compound 2, 1-(4-(trifluoromethoxy)phenyl)-3-(1-(6-(trifluoromethyl)nicotinoyl)piperidin-4-yl)urea] returned a melting point of 206 to 208 °C. The “% Inhibition” value in series [1] (compound concentration 200 nM) stood at 97%.

Consider `Cc1ncccc1C(=O)N1CCC(NC(=O)Nc2ccc(OC(F)(F)F)cc2)CC1` [Compound 3, 1-(1-(2-methylnicotinoyl)piperidin-4-yl)-3-(4-(trifluoromethoxy)phenyl)urea], for which the melting point lay within 107 to 109 °C. The “% Inhibition” value in series [1] (compound concentration 200 nM) was 95%.

For `Cc1ccc(C(=O)N2CCC(NC(=O)Nc3ccc(OC(F)(F)F)cc3)CC2)cn1` [Compound 4, 1-(1-(6-methylnicotinoyl)piperidin-4-yl)-3-(4-(trifluoromethoxy)phenyl)urea], the melting point lay within 206 to 208 °C. For the same compound, the “% Inhibition” value in series [1] (compound concentration 200 nM) stood at 97%.

For the compound `COc1ncccc1C(=O)N1CCC(NC(=O)Nc2ccc(OC(F)(F)F)cc2)CC1` [Compound 5, 1-(1-(2-methoxynicotinoyl)piperidin-4-yl)-3-(4-(trifluoromethoxy)phenyl)urea], the melting point was in the range of 92 to 94 °C. In addition, the “% Inhibition” value in series [1] (compound concentration 200 nM) worked out at 99%.

For `O=C(Nc1ccc(OC(F)(F)F)cc1)NC1CCN(S(=O)(=O)c2cccnc2)CC1` [Compound 6, 1-(1-(pyridin-3-ylsulfonyl)piperidin-4-yl)-3-(4-(trifluoromethoxy)phenyl)urea], the melting point lay in the range of 217 to 219 °C. Moreover, the “% Inhibition” value in series [1] (compound concentration 200 nM) is on record as 96%.

For the compound `O=C(Nc1ccc(OC(F)(F)F)cc1)NC1CCN(C(=O)c2cncc(F)c2)CC1` [Compound 7, 1-(1-(5-fluoronicotinoyl)piperidin-4-yl)-3-(4-(trifluoromethoxy)phenyl)urea], the melting point was 156 to 157 °C. Besides, in series [1] (compound concentration 2000 nM), the “% Inhibition” value is given as 98%.

Turning to `O=C(Nc1ccc(OC(F)(F)F)cc1)NC1CCN(C(=O)c2ccncc2)CC1` [Compound 8, 1-(1-isonicotinoylpiperidin-4-yl)-3-(4-(trifluoromethoxy)phenyl)urea], the “% Inhibition” value in series [1] (compound concentration 2000 nM) turned out to be 99%.

In the case of `COc1ccc(C(=O)N2CCC(NC(=O)Nc3ccc(OC(F)(F)F)cc3)CC2)cn1` [Compound 9, 1-(1-(6-methoxynicotinoyl)piperidin-4-yl)-3-(4-(trifluoromethoxy)phenyl)urea], the melting point was 200 to 202 °C. Further, the “% Inhibition” value in series [1] (compound concentration 2000 nM) turned out to be 99%.

Turning to `O=C(Nc1cccc(OC(F)(F)F)c1)NC1CCN(C(=O)c2cccnc2)CC1` [Compound 10, 1-(1-nicotinoylpiperidin-4-yl)-3-(3-(trifluoromethoxy)phenyl)urea], in series [1] (compound concentration 2000 nM), the “% Inhibition” value worked out at 99%.

With `O=C(Nc1ccc(OC(F)(F)F)cc1)NC1CCN(C(=O)Cc2ccccn2)CC1` [Compound 11, 1-(1-(2-(pyridin-2-yl)acetyl)piperidin-4-yl)-3-(4-(trifluoromethoxy)phenyl)urea], the “% Inhibition” value in series [1] (compound concentration 2000 nM) was 100%.

As for `O=C(Nc1ccc(OC(F)(F)F)cc1)NC1CCN(C(=O)c2cccnc2)CC1` [Compound 12, 1-(1-nicotinoylpiperidin-4-yl)-3-(4-(trifluoromethoxy)phenyl)urea], the “% Inhibition” value in series [1] (compound concentration 2000 nM) is reported as 100%.

As for `O=C(Nc1ccc(OC(F)(F)F)cc1)NC1CCN(C(=O)c2cnccc2C(F)(F)F)CC1` [Compound 13, 1-(4-(trifluoromethoxy)phenyl)-3-(1-(4-(trifluoromethyl)nicotinoyl)piperidin-4-yl)urea], the melting point fell in the range of 89 to 91 °C. Moreover, the “% Inhibition” value in series [1] (compound concentration 2000 nM) stood at 99%.

`O=C(Nc1ccc(OC(F)(F)F)cc1)NC1CCN(C(=O)c2ccc(-c3ccccc3)nc2)CC1` [Compound 14, 1-(1-(6-phenylnicotinoyl)piperidin-4-yl)-3-(4-(trifluoromethoxy)phenyl)urea] yielded a melting point of 230 to 232 °C. In series [1] (compound concentration 2000 nM), the “% Inhibition” value came to 100%.

The compound `O=C(Nc1ccc(OC(F)(F)F)cc1)NC1CCN(C(=O)c2ccc(N3CCOCC3)nc2)CC1` [Compound 15, 1-(1-(6-morpholinonicotinoyl)pipendin-4-yl)-3-(4-(trifluoromethoxy)phenyl)urea] gave a melting point of 265 to 268 °C. In series [1] (compound concentration 2000 nM), the “% Inhibition” value came to 100%.

`O=C(Nc1ccc(OC(F)(F)F)cc1)NC1CCN(C(=O)c2ccc(Oc3ccccc3)nc2)CC1` [Compound 16, 1-(1-(6-phenoxynicotinoyl)piperidin-4-yl)-3-(4-(trifluoromethoxy)phenyl)urea] yielded a melting point of 182 to 185 °C. Moreover, in series [1] (compound concentration 2000 nM), the “% Inhibition” value was determined as 100%.

With `CN1CCOc2cc(C(=O)N3CCC(NC(=O)Nc4ccc(OC(F)(F)F)cc4)CC3)cnc21` [Compound 17, 1-(1-(4-methyl-3,4-dihydro-2H-pyrido[3,2-b][1,4]oxazine-7-carbonyl)piperidin-4-yl)-3-(4-(trifluoromethoxy)phenyl)urea], the melting point was 212 to 214 °C. The “% Inhibition” value in series [1] (compound concentration 2000 nM) is on record as 100%.

`O=C(Nc1ccc(OC(F)(F)F)cc1)NC1CCN(C(=O)c2ccc(Cl)cn2)CC1` [Compound 18, 1-(1-(5-chloropicolinoyl)piperidin-4-yl)-3-(4-(trifluoromethoxy)phenyl)urea] registered a melting point of 213 to 215 °C. In addition, the “% Inhibition” value in series [1] (compound concentration 2000 nM) is listed as 97%.

(Values after patent publication US20090270382A1, “Soluble epoxide hydrolase inhibitors” (Arete Therapeutics, Inc., priority 2008, published 2009).)
